From US9205091B2, “Diazeniumdiolated compounds, pharmaceutical compositions, and method of treating cancer” (The United States of America, as represented by the …, priority 2009, dated 2015) come the findings set out here.

For data set [1], the system named is H1373. Nature of the data set: CellTiter 96 MTT cell proliferation assay (Example 9). In kind it is cell-based, human. The protocol:
(§1) Cell lines derived from human non-small cell lung cancers are obtained from American Type Culture Collection (ATCC, Manassas, Va.), and are designated by their NCI numbers. Cells are maintained in RPMI 1640 medium (Gibco, Invitrogen, Carlsbad, Calif.), supplemented with 10% fetal calf serum (Gemini Bio-Products, Sacramento, Calif.), 100 U/mL penicillin/streptomycin, and 2 mM glutamine at 37° C. and 5% CO2.
(§2) For proliferation assays cells are seeded at 2×10^4/well in 96-well plates, allowed to adhere for 24 hrs, and then are treated with the drug or DMSO as a control for 48 hours. […] Compounds are prepared as 10 mM stock solution in dimethyl sulfoxide (Sigma, St. Louis, Mo.). Increasing drug concentrations in 10 μL of phosphate-buffered saline (PBS) are added to 100 μL of the culture medium and incubated at 37° C. for 72 h. The CellTiter 96 non-radioactive cell proliferation assay (MTT assay, Promega, Madison, Wis.), is performed according to the manufacturer's protocol. Each compound concentration is represented in six repeats, and the screening is performed as at least two independent experiments. IC50 values are calculated using Sigma Plot software (Systat Software).
(In general: Formazan colour is commonly taken as a measure of viable cells.)

For data set [2], the system named is H1944. The data set is described as above. In kind it is cell-based, human. The protocol: as §1, §2
Data set [3] has as its system H441. The data set is described as above. In kind it is cell-based, human. The protocol:
as §1, §2

For data set [4], the system named is H2122. The data set is described as above. In kind it is cell-based, human. On the procedure: as §1, §2
The subject of data set [5] is H1703. The data set is described as above. In kind it is cell-based, human. On the procedure: as §1, §2
Data set [6] can be described thus: Rate of reaction with 4 mM glutathione (stability study, HPLC). In kind it is physicochemical. To be noted: for t½ (min) Mean (SE): 4 mM glutathione (GSH), aqueous pH 7.4 phosphate buffered saline, 37° C.; for half-life upon treatment with glutathione (GSH): in comparison with that of JS-K. The protocol: 490 μL of 2.25% Pluronic P123 in PBS is aliquoted into glass HPLC vials and maintained at 50° C. To this solution, 10 μL of 50 mM of compounds 6, 7, 9, and 11 in DMSO is added and maintained at 50° C. for 10 min. A glutathione stock solution (40 mM) is prepared in 0.1 M phosphate buffer pH 7.4. To 800 μL of 0.1 M phosphate buffer in a glass HPLC vial, 100 μL of glutathione stock solution and 100 μL of formulated prodrug are added. The disappearance of the compound is monitored using an Agilent 1100 series HPLC fitted with a C-18 reverse phase column (Phenomenex Luna 250×4.60 mm) operating at 300 nm and run isocratically with acetonitrile:water (75:25).

Data set [7] concerns lung adenocarcinoma cells (cell line H441). Nature of the data set: Proliferation of lung adenocarcinoma cells, JS-59-4 with olaparib (FIG. 2). In kind it is cell-based, human. To be noted: combination with the PARP inhibitor olaparib, in comparison to JS-59-4 alone. On the procedure:
FIG. 2 is a bar graph showing a synergistic effect of the administration of JS-59-4 with the PARP inhibitor olaparib in the inhibition of proliferation of lung adenocarcinoma cells (cell line H441). The white bar represents the control (i.e., no treatment). The light gray bar represents the administration of JS-59-4 alone (0.75 μM). The dark gray bar represents the administration of JS-59-4 alone (1 μM). The diagonally hatched bar represents the administration of olaparib alone (5 μM). The cross hatched bar represents the administration of olaparib alone (10 μM). The light gray diagonally gray bar represents the co-administration of JS-59-4 (0.75 μM) and olaparib (5 μM). The dark gray diagonally hatched bar represents the co-administration of JS-59-4 (1 μM) and olaparib (5 μM). The light gray cross hatched gray bar represents the co-administration of JS-59-4 (0.75 μM) and olaparib (10 μM). The dark gray cross hatched bar represents the co-administration of JS-59-4 (1 μM) and olaparib (10 μM).

The test system of data set [8] is H1703 cell line. Nature of the data set: Tiron protection against JS-K toxicity. In kind it is cell-based, human.
Data set [9] has as its system SAPK/JNK and p38. Nature of the data set: Tiron pre-treatment before JS-36-25, stress kinase phosphorylation. In kind it is cell-based, human. To be noted: 10 mM Tiron 1 hour, then 30 minutes 1 μM JS-36-25. The protocol:
Immunoblotting: For protein immunoblotting the cells are harvested in lysis buffer (25 mM Hepes buffer containing 150 mM NaCl, 10 mM MgCl2, 1% Nonidet P40, 0.25% sodium deoxycholate, 10% glycerol, 2.5 mM EDTA, supplemented with Complete proteinase inhibitors cocktail (Behringer). Cell extracts are resolved by SDS-polyacrylamide gel electrophoresis (4-12% Bis-Tris gels or 3-8% Tris-acetate gels, Invitrogen Life Technologies, Carlsbad, Calif.) then immunoblotted to PVDF membrane (Invitrogen). Antibodies to phospho-ATM, Phospho-ATR, cleaved caspases 3 and 7, phospho-SAPK/JNK and SAPK/JNK, phospho-ATF2, phospho-p38 and p38, phospho-c-jun and c-jun, and PARP are purchased from Cell Signaling Technology (Danvers, Mass.). Anti-ATF3 polyclonal antibodies are from Santa Cruz Biotechnology (Santa Cruz, Calif.). […] The cells are pre-treated for 1 hour with 10 mM Tiron, followed by 30 minutes incubation with 1 μM of JS-36-25. In the Tiron-treated cells phosphorylation of both SAPK/JNK and p38 by JS-36-25 is diminished in comparison with JS-36-25-only treated cells (FIG. 3C).

Data set [10] deals with H1703 cells. Nature of the data set: H1703 xenograft in athymic NCr-nu/nu mice, tumor weights (Example 10). In kind it is in vivo. To be noted: 8 micromols/kg i.v., three times a week for three weeks. On the procedure:
H1703 cells are harvested at 80% confluence, washed with PBS, and suspended in PBS. The cells are injected at 5×10^6 s.c. into a flank of 7-week-old female athymic NCr-nu/nu mice (Charles River). […] Animals are treated three times a week for three weeks with i.v. tail vein injections of either vehicle (2.25% P-123 in PBS) or 1 or 2 (6 micromols/kg in the vehicle) or 6 (8 micromols/kg). Body weights are taken before each drug injection. Animals are sacrificed two hours after the last drug injection and the tumors are excised and weighed. There are 13-15 mice/group at termination. The non-parametric Mann-Whitney test is utilized for statistical comparisons of tumor weights.

The term IC50 denotes the concentration that inhibits the measured activity by half. In the case of `CCOC(=O)N1CCCN(/[N+]([O-])=N/Oc2cc(OC)c([N+](=O)[O-])cc2[N+](=O)[O-])CC1` [Compound 11, O^2-(2,4-dinitrophenyl-5-methoxy) 1-[(4-ethoxycarbonyl)homopiperazin-1-yl]diazen-1-ium-1,2-diolate], the IC50 is 3.08 µM in [1]; > 10 µM in data set [2]; 3.15 µM in data set [3]; 10 µM in data set [4]; 1.82 µM in [5]. Also, the “t½ (min) Mean (SE)” value in data set [6] is 59.6 (4.2) min.
With `CCOC(=O)N1CCN(/[N+]([O-])=N/Oc2cc(OC)c([N+](=O)[O-])cc2[N+](=O)[O-])CC1` [Compound 9, O^2-(2,4-dinitrophenyl-5-methoxy) 1-[(4-ethoxycarbonyl)piperazin-1-yl]diazen-1-ium-1,2-diolate], the IC50 in data set [1] was 2.1 µM; in [2] it was > 10 µM; in data set [3] it was 2.5 µM; in data set [4], 5.78 µM; in data set [5], 1.57 µM. In [6], the “t½ (min) Mean (SE)” value is 38.6 (2.8) min.
With `CCOC(=O)N1CCN(/[N+]([O-])=N/Oc2ccc([N+](=O)[O-])cc2C#N)CC1` [JS-59-4], the “antiproliferative activity of the combination” value in [7] was “significantly enhanced antiproliferative activity”. In data set [6], the “half-life upon treatment with glutathione (GSH)” value was “prolonged half-life”.
Turning to `CCOC(=O)N1CCN(/[N+]([O-])=N/Oc2ccc(C#N)cc2[N+](=O)[O-])CC1` [JS-59-131], the “half-life upon treatment with glutathione (GSH)” value in [6] was “prolonged half-life”.
In the case of `O=S(=O)(O)c1cc(O)c(O)c(S(=O)(=O)O)c1` [Tiron], the “effect on JS-K toxicity” value in data set [8] was “protective effect”. Moreover, the “SAPK/JNK and p38 phosphorylation by JS-36-25” value in data set [9] is “significantly reduces”.
Turning to `CCOC(=O)N1CCN(/[N+]([O-])=N/Oc2cc(C)c([N+](=O)[O-])cc2[N+](=O)[O-])CC1` [Compound 6, O^2-(2,4-dinitrophenyl-5-methyl) 1-[(4-ethoxycarbonyl)piperazin-1-yl]diazen-1-ium-1,2-diolate], in data set [10], the “H1703 tumor growth in vivo” value is listed as “did not result in reduction”. Further, the IC50 in data set [1] was 1.86 µM; in data set [2] it was > 10 µM; in [3], 1.61 µM; in data set [4], 7 µM; in data set [5], 0.97 µM. Besides, the “t½ (min) Mean (SE)” value in data set [6] is on record as 71.5 (4.3) min.
Turning to `CCOC(=O)N1CCCN(/[N+]([O-])=N/Oc2cc(C)c([N+](=O)[O-])cc2[N+](=O)[O-])CC1` [Compound 7, O^2-(2,4-dinitrophenyl-5-methyl) 1-[(4-ethoxycarbonyl)homopiperazin-1-yl]diazen-1-ium-1,2-diolate], the IC50 in data set [1] was 3 µM; in data set [2], > 10 µM; in data set [3] it was 2.02 µM; in data set [4], 10 µM; in data set [5], 1.66 µM. Also, the “t½ (min) Mean (SE)” value in [6] was 25.7 (1.0) min.
